The text below walks through data of ChEMBL document CHEMBL4184114, “Discovery of selective, orally bioavailable inhibitor of mouse chitotriosidase” (Bioorg Med Chem Lett, 2018).

Each structure is given as a SMILES string.

For data set [1], the target named is Acidic mammalian chitinase (Mus musculus, UniProt Q91XA9). The experiment in a line: Inhibition of mouse AMCase using 4-methylumbelliferyl beta-D-N,N' diacetylchitobioside hydrate as substrate measured after 60 mins by fluorometric method.
Data set [2] concerns the target Chitotriosidase-1 (Mus musculus, UniProt Q9D7Q1). The experiment in a line: Inhibition of mouse CHIT1 using 4-methylumbelliferyl beta-D-N,N',N'' triacetylchitotrioside as substrate measured after 60 mins by fluorometric method.
A short description of data set [3]: Cmax in BALB/c mouse at 3 mg/kg, iv administered as bolus dose by LC-MS/MS analysis. The class given is ADME, organism-based. On the set-up: dose 3 mg/kg, route intravenous. The note with it: in vivo.
Data set [4] can be described thus: Half-life in BALB/c mouse at 3 mg/kg, iv administered as bolus dose by LC-MS/MS analysis. It counts as ADME, organism-based. The note with it: in vivo.
Data set [5] is described as follows: Oral bioavailability in BALB/c mouse at 10 mg/kg by LC-MS/MS analysis. It counts as ADME, organism-based. Particulars: in vivo.
The nature of data set [6]: Clearance in BALB/c mouse at 3 mg/kg, iv administered as bolus dose by LC-MS/MS analysis. The class given is ADME, organism-based. The note with it: in vivo.
Data set [7] is described as follows: Tmax in BALB/c mouse at 10 mg/kg, po by LC-MS/MS analysis. The class given is ADME, organism-based. The note with it: in vivo.
A short description of data set [8]: Volume of distribution at steady state in BALB/c mouse at 3 mg/kg, iv administered as bolus dose by LC-MS/MS analysis. The class given is ADME, organism-based. The note with it: in vivo, read-out: Vdss.
Data set [9] in a line: Cmax in BALB/c mouse at 10 mg/kg, po by LC-MS/MS analysis. The class given is ADME, organism-based. On the set-up: dose 10 mg/kg, route oral. Particulars: in vivo.
Data set [10] in a line: AUC (0 to infinity) in BALB/c mouse at 3 mg/kg, iv administered as bolus dose by LC-MS/MS analysis. It counts as ADME, organism-based. On the set-up: dose 3 mg/kg, route intravenous, time infinity. Particulars: in vivo.
Data set [11] is described as follows: AUC (0 to infinity) in BALB/c mouse at 10 mg/kg, po by LC-MS/MS analysis. The class given is ADME, organism-based. On the set-up: dose 10 mg/kg, time infinity, route oral. The note with it: in vivo.
Data set [12] can be described thus: Half-life in BALB/c mouse at 10 mg/kg, po by LC-MS/MS analysis. The class given is ADME, organism-based. Particulars: in vivo.

Chain of Chitotriosidase-1 (Q9D7Q1 whole entry): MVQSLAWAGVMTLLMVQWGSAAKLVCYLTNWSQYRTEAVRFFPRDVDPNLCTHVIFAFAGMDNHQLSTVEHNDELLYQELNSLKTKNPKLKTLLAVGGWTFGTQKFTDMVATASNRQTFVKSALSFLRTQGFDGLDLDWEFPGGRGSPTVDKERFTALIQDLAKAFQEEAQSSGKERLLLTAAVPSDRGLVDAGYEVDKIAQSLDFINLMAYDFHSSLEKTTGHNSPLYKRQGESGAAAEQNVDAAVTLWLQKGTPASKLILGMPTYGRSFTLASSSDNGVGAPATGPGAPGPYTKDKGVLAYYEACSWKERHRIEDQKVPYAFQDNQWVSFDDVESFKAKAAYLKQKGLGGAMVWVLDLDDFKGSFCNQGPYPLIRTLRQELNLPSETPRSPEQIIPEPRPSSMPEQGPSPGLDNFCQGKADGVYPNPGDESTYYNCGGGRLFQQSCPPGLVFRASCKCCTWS
Chain of Acidic mammalian chitinase (Q91XA9 whole entry): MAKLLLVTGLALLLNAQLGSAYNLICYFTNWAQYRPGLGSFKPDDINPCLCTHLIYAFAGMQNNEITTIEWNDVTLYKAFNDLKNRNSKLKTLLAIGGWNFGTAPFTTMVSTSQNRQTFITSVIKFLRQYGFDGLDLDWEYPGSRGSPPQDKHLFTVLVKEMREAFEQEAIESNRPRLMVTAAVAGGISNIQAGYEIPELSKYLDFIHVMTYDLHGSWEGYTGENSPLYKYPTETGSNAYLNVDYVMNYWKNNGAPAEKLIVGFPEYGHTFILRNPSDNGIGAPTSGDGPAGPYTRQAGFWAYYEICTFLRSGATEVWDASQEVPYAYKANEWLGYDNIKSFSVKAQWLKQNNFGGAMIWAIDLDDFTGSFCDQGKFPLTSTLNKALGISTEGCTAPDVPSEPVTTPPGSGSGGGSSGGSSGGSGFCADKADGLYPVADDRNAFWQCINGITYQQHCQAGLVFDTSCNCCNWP

Take `Nc1nc(N2CCC(N3C[C@@H]4C[C@H](O)CN4C[C@@H]3Cc3ccc(Cl)cc3)CC2)n[nH]1`: the IC50 was determined as 130 nM in data set [1] and 29 nM in data set [2].

Turning to `CC(=O)N1C[C@H](Cc2ccc(Cl)cc2)N(C2CCN(c3nnc(N)[nH]3)CC2)C[C@@H]1C`, the IC50 in [1] worked out at 6020 nM; in data set [2], 4380 nM.

Take `C[C@H]1CN(C2CCN(c3nnc(N)[nH]3)CC2)[C@@H](Cc2ccc(Cl)cc2)CN1S(C)(=O)=O`: the results for the IC50 in data set [1] and in data set [2] were 3720 nM and 1010 nM, respectively.

With `CC(C)C[C@H]1CN(C2CCN(c3n[nH]c(N)n3)CC2)[C@@H](Cc2ccc(Cl)cc2)CN1CC(C)C`, the IC50 came out at 5700 nM in data set [1] and 41 nM in [2].

On to `CC(C)C[C@H]1CN(C2CCN(c3n[nH]c(N)n3)CC2)[C@@H](Cc2ccc(Cl)cc2)CN1`, for which the results for the IC50 in data set [1] and in data set [2] were 2910 nM and 135 nM, respectively.

Consider `COC(=O)CN1C[C@H](Cc2ccc(Cl)cc2)N(C2CCN(c3n[nH]c(N)n3)CC2)C[C@@H]1C`, for which the figures for the IC50 in [1] and in data set [2] were 231 nM and 29 nM, respectively.

With `Nc1nc(N2CCC(N3C[C@@H]4C[C@@H](O)CN4C[C@@H]3Cc3ccc(Cl)cc3)CC2)n[nH]1`, the IC50 in data set [1] turned out to be 136 nM; in data set [2], 48 nM.

Regarding `C[C@H]1CN(C2CCN(c3n[nH]c(N)n3)CC2)[C@@H](Cc2ccc(Cl)cc2)CN1CC(=O)N(C)C`, the values for the IC50 in [1] and in [2] were 751 nM and 24 nM, respectively.

Regarding `C[C@H]1CN(C2CCN(c3nnc(N)[nH]3)CC2)[C@@H](Cc2ccc(Cl)cc2)CN1C`, the IC50 in data set [1] was determined as 1220 nM; in data set [2] it was 186 nM.

`CN1CCN(C2CCN(c3nnc(N)[nH]3)CC2)[C@@H](Cc2ccc(Cl)cc2)C1`: the IC50 in data set [1] came out at 7600 nM; in data set [2], 1590 nM.

Consider `C[C@H]1CN(C2CCN(c3nnc(N)[nH]3)CC2)[C@@H](Cc2ccc(Cl)cc2)CN1CC(=O)O`, for which the half-inhibitory concentration (IC50) worked out at 527 nM in data set [1] and 53 nM in data set [2].

For `COC(=O)N1C[C@H](Cc2ccc(Cl)cc2)N(C2CCN(c3nnc(N)[nH]3)CC2)C[C@@H]1C`, the IC50 in data set [1] worked out at 3750 nM; in [2] it was 461 nM.

As for `CC(C)CN1C[C@H](Cc2ccc(Cl)cc2)N(C2CCN(c3n[nH]c(N)n3)CC2)C[C@@H]1C`, the IC50 in data set [1] stood at 4170 nM; in data set [2] it was 29 nM. Moreover, the Cmax stood at 1480 ng/mL in [3] and 840 ng/mL in data set [9]. Also, the half-life in data set [4] is 2.87 h; in data set [12], 2.83 h. For the same compound, the bioavailability in data set [5] turned out to be 61.2%. Moreover, the clearance in data set [6] was 28.5 mL/min/kg. Besides, the Tmax in data set [7] amounted to 0.5 h. Moreover, in data set [8], the Vd stood at 4.6 L/kg. The AUC(0-inf) came out at 1750 ng·h/mL in [10] and 3570 ng·h/mL in data set [11].

Take `C[C@H]1CN(C2CCN(c3n[nH]c(N)n3)CC2)[C@@H](Cc2ccc(Cl)cc2)CN1Cc1ccc(Cl)cc1`: the IC50 was 1400 nM in [1] and 495 nM in data set [2].

As for `CN1C[C@H](Cc2ccc(Cl)cc2)N(C2CCN(c3nnc(N)[nH]3)CC2)C[C@@H]1CC1CCCCC1`, the IC50 in data set [1] amounted to 640 nM; in data set [2] it was 128 nM.

In the case of `Nc1nnc(N2CCC(N3C[C@@H]4CCCN4C[C@@H]3Cc3ccc(Cl)cc3)CC2)[nH]1`, the IC50 in data set [1] stood at 697 nM; in data set [2] it was 161 nM.

For the compound `Nc1nc(N2CCC(N3C[C@@H]4CCCCN4C[C@@H]3Cc3ccc(Cl)cc3)CC2)n[nH]1`, the IC50 in [1] came out at 525 nM; in [2] it was 175 nM.

Turning to `CC(C)C[C@H]1CN(C2CCN(c3nnc(N)[nH]3)CC2)[C@@H](Cc2ccc(Cl)cc2)CN1C`, the IC50 in data set [1] was 936 nM; in [2], 95 nM.

Take `CN1C[C@H](Cc2ccc(Cl)cc2)N(C2CCN(c3nnc(N)[nH]3)CC2)C[C@@H]1CO`: the IC50 stood at 1250 nM in data set [1] and 175 nM in data set [2].

For the compound `CN1C[C@H](Cc2ccc(Cl)cc2)N(C2CCN(c3nnc(N)[nH]3)CC2)C[C@@H]1Cc1ccc(Cl)cc1`, the IC50 in data set [1] is 518 nM; in data set [2], 103 nM.
